# Test results taken from patent US20060222628A1, “Gallium complexes of 3-hydroxy-4-pyrones to treat infection by intracellular prokaryotes and DNA viruses” (priority 1999, published 2006).
# What was measured:
# [1] = in vivo, po; cited from earlier work
# Herpes Simplex = assay: Clinical evaluation for Herpes Simplex (I or II) infection and recurrences; format: in vivo, human
# Protocol: Patients with Herpes Simplex infection are treated once per day with gelatin capsules containing gallium maltolate. The population of patients is divided into subpopulation with recurrent Herpes Simplex and acute Herpes Simplex infections respectively. These different subpopulations are divided randomly and blindly into two approximately equal groups with four approximately equal subgroups that receive either 0 (placebo), 250, 500, or 750 mg/day gallium maltolate for about six months. The first group of each subpopulation receive the gallium maltolate dose together with 200 mg acyclovir five times per day. The second group of each subpopulation receive the gallium maltolate dose together with 500 mg ganciclovir twice per day. Patients are medically monitored for resolution recurrences of latent Herpes Simplex infection, or medical symptoms of acute Herpes Simplex infection throughout the study, with the monitoring including in situ hybridization of skin lesions for HSV DNA. In addition for the acute Herpes Simplex infected group, blood serum samples are obtained from the patients at days 0, 3, 7, and 10 and are assayed for HSV particle by routine methods and for Herpes Simplex DNA (viral load assay) using PCR.
# hepatitis B = assay: Clinical evaluation in co-infection by HIV and hepatitis B: hepatitis B; format: in vivo, human
# Protocol: (§1) Gallium maltolate is evaluated clinically for efficacy in treating hepatitis B co-infection of a HIV-1 patients. In addition to the methods used in Example 5 for evaluating the HIV disease, the methods employed in the clinical studies discussed in the following references are used in the evaluation: Yao et al. (1997), “Treatment of Chronic Hepatitis B: New Antiviral Therapies,” Curr. Gastroenterol. Rep. 1(1):20-26; Hoofnagle et al. (1997), “New therapies for chronic hepatitis B,” supra.
# (§2) Patients are treated once per day with gelatin capsules containing gallium maltolate. The population of patients with hepatitis B and HIV infection are first divided into two subpopulations groups based on CD4+ counts (above 350/mm^3 and below 350/mm^3). […]
# (§3) In each subpopulation, the first group's four subgroups from each subpopulation (above 350/mm^3 and below 350/mm^3) additionally receive the gallium maltolate dose together with 10 million IU interferon by injection once per day. […] Patients are monitored for HIV disease precisely as described in Example 5. Patients are also medically monitored for liver disease, including liver function testing and examination for medical symptoms of hepatitis B infection throughout the study, with careful attention to the possibility that the drugs themselves may cause some liver disease and elevate the liver function tests. […]
# HIV = assay: Clinical evaluation for prevention of CMV disease in HIV patients: HIV; format: in vivo; conditions: CMV prevention study; MacSynergy II
# Protocol: Patients are treated once per day with gelatin capsules containing gallium maltolate. The population of patients with CMV (almost universal, seropositive or culture positive patients) and HIV infection are first divided into two subpopulations groups based on CD4+ counts (above 350/mm^3 and below 350/mm^3). The subpopulations are randomly and blindly divided into two groups each randomly subdivided into subgroups for a total of sixteen approximately equal subgroups that receive either 0 (placebo), 250, 500, or 750 mg/day gallium maltolate for about six months. All subgroups receive the identical regimen of non-gallium antiretroviral therapy as described in Example 5 (a HAART regime). […] In each subpopulation, the first group's four subgroups from each subpopulation (above 350/mm^3 and below 350/mm^3) additionally receive the gallium maltolate dose together with 5500 mg foscarnet, IV infusion over 1.5-2 hr., twice per day. In each subpopulation, the second group's four subgroups receive the gallium maltolate dose together with 1000 mg ganciclovir four times per day. Patients are monitored for HIV disease precisely as described in Example 5. Patients are also medically monitored for CMV disease, including testing and examination for medical symptoms of CMV disease, such as CMV retinitis, throughout the study. Any mucosal or skin lesions are studied by in situ hybridization for CMV DNA. […]
# transferrin (Tf) = target: T1, transferrin (Tf) (Homo sapiens, UniProt P02787); conditions: oral, versus intravenous gallium nitrate; cited from earlier work
# T1 construct: host or cells: circulating (blood plasma) transferrin of the dosed subject
# HIV-1 = assay: Clinical evaluation in co-infection by HIV and hepatitis B: HIV; format: in vivo, human; conditions: hepatitis B co-infected patients; MacSynergy II
# Protocol: as §1, §2, §3
# Epstein-Barr Virus (EBV) = assay: Clinical evaluation for Epstein-Barr virus (EBV) infection; format: in vivo, human
# Protocol: Some of the methods employed in the clinical studies discussed in the following references are used in the evaluation: Schneider et al. (2000), “Regression of Epstein-Barr virus-associated lymphoproliferative disorders in patients with acquired immunodeficiency syndrome during therapy with foscarnet,” Ann. Hematol. 79(4):214-6. Patients with EBV infection are treated once per day with gelatin capsules containing gallium maltolate. The patients are divided randomly and blindly into two approximately equal groups with four approximately equal subgroups that receive either 0 (placebo), 250, 500, or 750 mg/day gallium maltolate for about six months. The first group receive the gallium maltolate dose together with 500 mg ganciclovir twice per day. The second group receive the gallium maltolate dose together with 5500 mg foscarnet, IV infusion over 1.5-2 hr., twice per day. Patients are medically monitored for resolution of EBV infection, with histopathologic examination of hematologic smears to assess characteristic cells an lymphocyte levels. In addition blood serum samples are obtained from the patients at days 1, 3, 7, 10, 14, 17, 21, 24 and 28 and are assayed for EBV particles by routine methods and for EBV DNA (viral load assay) using PCR.
# [2] = Stability of the 3:1 complex in aqueous solutions at various pH by ultraviolet spectroscopy; format: physicochemical; conditions: 1.0×10^−2 M in water, 25° C.
# Protocol: The pH was adjusted by adding either 1N HCl or 1N Na2CO3. The stability of the complex was determined using ultraviolet spectroscopy over the region 200-450 nm at 25° C. Several absorption peaks are observed in this range, including those at about 212-217 nm, 248 nm, 273 nm, 318 nm, and 385 nm. An isobesic point occurs over much of the pH range at about 290 nm. In the very dilute solutions (2.5×10^−6 M), the neutral 3:1 complex appears to be stable from about pH 4.5 to 9.5. For the less dilute solutions (1.0×10^−2 M), the determination was more difficult due to the very high absorbance.
# T1 sequence (P02787 20-698, species assumed): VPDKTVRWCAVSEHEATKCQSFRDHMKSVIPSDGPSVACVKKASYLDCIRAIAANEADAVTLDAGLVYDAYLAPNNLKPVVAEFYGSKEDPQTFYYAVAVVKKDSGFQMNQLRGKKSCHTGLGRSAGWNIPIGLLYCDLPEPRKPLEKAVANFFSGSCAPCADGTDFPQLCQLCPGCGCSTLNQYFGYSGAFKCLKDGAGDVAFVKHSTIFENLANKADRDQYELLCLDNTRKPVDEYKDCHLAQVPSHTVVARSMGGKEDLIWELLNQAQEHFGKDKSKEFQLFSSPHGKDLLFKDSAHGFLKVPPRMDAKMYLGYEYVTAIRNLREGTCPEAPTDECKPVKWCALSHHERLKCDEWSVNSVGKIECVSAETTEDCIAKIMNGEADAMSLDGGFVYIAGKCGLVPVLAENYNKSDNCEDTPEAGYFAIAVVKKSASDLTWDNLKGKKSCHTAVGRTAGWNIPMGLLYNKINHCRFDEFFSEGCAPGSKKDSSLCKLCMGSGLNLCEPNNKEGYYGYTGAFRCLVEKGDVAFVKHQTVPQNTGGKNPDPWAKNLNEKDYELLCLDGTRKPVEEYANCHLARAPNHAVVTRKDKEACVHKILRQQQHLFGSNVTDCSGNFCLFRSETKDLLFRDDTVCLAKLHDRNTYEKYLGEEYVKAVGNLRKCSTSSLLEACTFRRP
smiles,measurement,setting,value
"Cc1occc(=O)c1[O-].Cc1occc(=O)c1[O-].Cc1occc(=O)c1[O-].[Ga+3] [gallium maltolate, tris(3-hydroxy-2-methyl-4H-pyran-4-onato)gallium]",Renotoxicity or nephrotoxicity,[1],no renotoxicity or nephrotoxicity has been observed
same,Efficacy in treating Herpes Simplex infection,"Herpes Simplex; HIV negative patients, 250-750 mg/day oral with acyclovir or ganciclovir","effective for treating Herpes Simplex infection, including recurrent sores as well as more serious systemic disease"
same,Efficacy of combination with acyclovir or ganciclovir versus single agents,Herpes Simplex; Herpes Simplex,more effective than either agent alone
same,Synergy with nucleoside analogs,"Herpes Simplex; Herpes Simplex, MacSynergy II",synergy of gallium with both nucleoside analogs is also demonstrated
same,Efficacy in treating hepatitis B infection in combination,"hepatitis B; HIV co-infected patients on HAART, with interferon-alpha or lamuvidine",effective in combination with interferon and interferon plus nucleoside analogs
same,Synergy in treating hepatitis B infection,hepatitis B; with interferon and interferon plus nucleoside analogs,synergistic with both
same,Synergy with the HAART regime on HIV infection,HIV,synergistic with the HAART regime in their effects upon the HIV infection
same,Tf binding of absorbed gallium and tissue distribution,transferrin (Tf),higher Tf binding of absorbed gallium and therefore better tissue distribution than intravenous gallium nitrate
same,Synergy with the HAART regime on HIV infection,HIV-1,synergistic with the HAART regime in their effects upon the HIV infection
same,Efficacy of combination with ganciclovir or foscarnet versus single agents,Epstein-Barr Virus (EBV); EBV,more effective than either agent alone
same,Synergy with nucleoside analogs,"Epstein-Barr Virus (EBV); EBV, MacSynergy II",synergy of gallium with both nucleoside analogs is also demonstrated
same,Efficacy in treating EBV infection,"Epstein-Barr Virus (EBV); HIV negative patients, 250-750 mg/day oral with ganciclovir or foscarnet","effective for treating EBV infection, including recurrent sores as well as more serious systemic disease"
same,Stability region (pH),[2],"very similar to that of the highly dilute solution, possibly slightly wider"
